Data from patent US6472227B1, “Barbiturate assay, tracers, immunogens, antibodies and kit” (Abbott Laboratories, priority 1986, dated 2002).

Key:
[1] = system: antibodies raised against an immunogen having the structure shown in FIG. 29; experiment: Fluorescence polarization immunoassay cross-reactivity, tracer of FIG. 31; format: binding, sheep; conditions: tracer FIG. 31
Protocol: (§1) The antibodies of the present invention are prepared by eliciting a response in sheep to the immunogens described supra. The immunogen is administered to animals or to in vitro cultures of immunocompetent cells by a series of innoculations, in a manner well known to those skilled in the art.

[2] = system: antibodies raised against an immunogen having the structure shown in FIG. 29; experiment: Fluorescence polarization immunoassay cross-reactivity in drug-free normal human urine, tracer of FIG. 30; format: binding, sheep; conditions: for % CR / Conc. Found: tracer FIG. 30; for amount of the test compound found in the resulting human urine: 200 ng/mL added to drug-free urine, secobarbital standard
Protocol: as §1
(§2) The tracer formulation presently preferred is 150 nanomolar tracer in: 0.1 molar phosphate buffer at pH 6.2; 5% sodium 5-sulfosalicylate; 0.1% sodium azide; and 0.01% bovine gamma-globulin. The antiserum formulation comprises sheep serum diluted with: 0.1 molar tris buffer at pH 7.5; 0.1% sodium azide; 0.1% bovine gamma-globulin; and 2% ethylene glycol (volume/volume). The dilution buffer comprises: 0.1 molar sodium phosphate at pH 7.5; 0.1% sodium azide; and 0.01% bovine gamma-globulin. The pretreatment solution comprises: 0.01% bovine gamma-globulin; 0.1 molar tris buffer at pH 7.5; 0.1% sodium azide; and 10 mg/mL riboflavin binding protein.
(§3) A minimum of fifty microliters of urine is required. The calibrators, controls, or unknown samples are pipetted directly into the sample well of the TDx® or ADx® sample cartridge. […] The assay procedure from this point is fully automated.
(§4) If a manual assay is being performed, then the sample is mixed with the pretreatment solution in dilution buffer and a background reading is taken. The tracer and antibody are then mixed into the test solution. After incubation, a fluorescence polarization reading is taken.
(§5) The net fluorescence polarization value of each calibrator, control or sample is determined and is printed on the output tape of an instrument such as the Abbott TDx® Analyzer. […] The concentration of each control or sample is read off the stored calibration curve and printed on the output tape.
Cross-reactivity was tested by the method of the present invention for the commonly-used barbiturates. In each case, compounds were assayed on the Abbott Laboratories+ TDx® Clinical Analyzer or the ADx® Drugs of Abuse System after adding a known quantity (200 ng/mL) of the barbiturate test compound to drug-free normal human urine.
(§6) The five columns in Tables 4(a) and 4(b) indicate the same information as is described above for Table 3(a).

[3] = system: antibodies raised against an immunogen having the structure shown in FIG. 28; experiment: Fluorescence polarization immunoassay cross-reactivity in drug-free normal human urine, tracer of FIG. 5; format: binding, sheep; conditions: for amount of the test compound found in the resulting human urine: 200 ng/mL added to drug-free urine, secobarbital standard
Protocol: as §1, §2, §3, §4, §5
Cross-reactivity was tested by the method of the present invention for the commonly-used barbiturates. […]
The five columns indicate the following information:
In other words, when 200 ng of secobarbital were added to drug-free normal human urine, approximately 200 ng of secobarbital were detected in the resulting urine sample. Thus, the closer the factor is to 1.0, the more accurate the assay is with respect to the particular test compound analyzed.
The percent cross-reactivity value presented in column five was obtained by the following mathematical formula: [formula]
as §6

[4] = Long-term tracer stability: polarization and net intensity after storage (Tables 2(a), 2(b)); format: physicochemical
Excerpt: The data presented in Tables 2(a) and 2(b) below indicate that a tracer which has an ethylene (—CH═CH—) linkage group between the fluorescein and the ligand component of the tracer remains stable at varied temperatures for a period of at least one and one half years. While a tracer having the chemical structure shown in FIG. 5 was employed to generate the data presented in Table 2(a), a tracer having the chemical structure shown in FIG. 30 was employed to generate the data presented in Table 2(b).

[5] = 200 ng/mL added, listed as secobarbital

## C=CCC1(c2ccccc2)C(=O)NC(=O)NC1=O [Alphenal]
[1]; Conc. Added 1200 ng/mL
  % CR: >167%
[2]; Conc. Added 1200 ng/mL
  % CR: 94%
  Conc. Found: 1130 ng/mL

## CCC1(c2ccc(N)cc2)CCC(=O)NC1=O (stereo not drawn) [Aminoglutethimide]
[2]; 1 μg/mL added
  amount of the test compound found: ND (None detected: Concentration less than the sensitivity of the assay (60 ng/mL))
[2]; 10 μg/mL added
  amount of the test compound found: 117 ng/mL
  factor: 0.00117
  percent cross reactivity: 1.17%
[2]; 100 μg/mL added
  amount of the test compound found: 412 ng/mL
  factor: 0.00041
  percent cross reactivity: 0.41%

## CCC1(CCC(C)C)C(=O)NC(=O)NC1=O [Amobarbital]
[1]; Conc. Added 1200 ng/mL
  % CR: 73%
  Conc. Found: 870 ng/mL
[3]; 200 ng/mL added
  factor which overestimates or underestimates the compound assayed for: 1.55
  percent cross reactivity: 155%
[3]
  amount of the test compound found in the resulting human urine: 310 ng/mL
[2]; 200 ng/mL added
  factor which overestimates or underestimates the compound assayed for: 0.43
  percent cross reactivity: 43%
[2]
  amount of the test compound found in the resulting human urine: 85 ng/mL
[2]; Conc. Added 1200 ng/mL
  % CR: 41%
  Conc. Found: 490 ng/mL

## C=CCC1(C(C)C)C(=O)NC(=O)NC1=O [Aprobarbital]
[1]; Conc. Added 1200 ng/mL
  % CR: 139%
  Conc. Found: 1670 ng/mL
[2]; 200 ng/mL added
  factor which overestimates or underestimates the compound assayed for: 0.62
  percent cross reactivity: 62%
[2]
  amount of the test compound found in the resulting human urine: 123 ng/mL
[2]; Conc. Added 1200 ng/mL
  % CR: 77%
  Conc. Found: 920 ng/mL

## C=CCC1(CC(=C)Br)C(=O)NC(=O)NC1=O [Brallobarbital]
[1]; Conc. Added 1200 ng/mL
  % CR: 159%
  Conc. Found: 1910 ng/mL
[2]; 200 ng/mL added
  factor which overestimates or underestimates the compound assayed for: 0.94
  percent cross reactivity: 94%
[2]
  amount of the test compound found in the resulting human urine: 188 ng/mL
[2]; Conc. Added 1200 ng/mL
  % CR: 117%
  Conc. Found: 1400 ng/mL

## CCC(C)C1(CC)C(=O)NC(=O)NC1=O (stereo not drawn) [Butabarbital]
[1]; Conc. Added 1200 ng/mL
  % CR: >167%
[2]; 200 ng/mL added
  factor which overestimates or underestimates the compound assayed for: 2.24
  percent cross reactivity: 224%
[2]
  amount of the test compound found in the resulting human urine: 489 ng/mL
[2]; Conc. Added 1200 ng/mL
  % CR: >167%

## C=CCC1(CC(C)C)C(=O)NC(=O)NC1=O [Butalbital]
[1]; Conc. Added 1200 ng/mL
  % CR: >167%
[3]; 200 ng/mL added
  factor which overestimates or underestimates the compound assayed for: 1.00
  percent cross reactivity: 100%
[3]
  amount of the test compound found in the resulting human urine: 201 ng/mL
[2]; 200 ng/mL added
  factor which overestimates or underestimates the compound assayed for: 1.13
  percent cross reactivity: 113%
[2]
  amount of the test compound found in the resulting human urine: 227 ng/mL
[2]; Conc. Added 1200 ng/mL
  % CR: 167%
  Conc. Found: 2000 ng/mL

## C=CCC1(C2C=CCC2)C(=O)NC(=O)NC1=O (stereo not drawn) [Cyclopentobarbital]
[1]; Conc. Added 1200 ng/mL
  % CR: >167%
[2]; Conc. Added 1200 ng/mL
  % CR: >167%

## CCCC(C)C1(C/C=C/C(=O)NCc2c(O)ccc3c2Oc2cc(O)ccc2C32OC(=O)c3ccccc32)C(=O)NC(=O)NC1=O (stereo not drawn) [FIG. 5]
[4]; 1 Year, 2-8 °C
  Average Net Intensity: 3161-4615
  Polarization: 204.85
[4]; 18 Months, 2-8 °C
  Average Net Intensity: 3304-4798
  Polarization: 199.29
[4]; Day 0, 2-8 °C
  Average Net Intensity: 3400-5000
  Polarization: 209.17
[4]; Day 1, 2-8 °C
  Average Net Intensity: 3290-4733
  Polarization: 206.61
[4]; Day 2, 2-8 °C
  Average Net Intensity: 3200-4670
  Polarization: 207.07
[4]; Day 3, 2-8 °C
  Average Net Intensity: 3367-4895
  Polarization: 208.05
[4]; Day 3, 37 °C
  Average Net Intensity: 3400-4910
  Polarization: 207.60
[4]; Day 3, 45 °C
  Average Net Intensity: 3400-4950
  Polarization: 205.51
[4]; Day 3, −20 °C
  Average Net Intensity: 3395-4965
  Polarization: 207.38
[4]; Month 2, 2-8 °C
  Average Net Intensity: 3282-4777
  Polarization: 207.21
[4]; Month 4, 2-8 °C
  Average Net Intensity: 3210-4775
  Polarization: 205.59
[4]; Month 8, 2-8 °C
  Average Net Intensity: 3150-4677
  Polarization: 206.85
[4]; Week 1, 2-8 °C
  Average Net Intensity: 3400-4900
  Polarization: 208.25
[4]; Week 1, 37 °C
  Average Net Intensity: 3500-5000
  Polarization: 202.78
[4]; Week 1, 45 °C
  Average Net Intensity: 3550-5200
  Polarization: 200.11
[4]; Week 1, −20 °C
  Average Net Intensity: 3300-4800
  Polarization: 208.46
[4]; Week 2, 2-8 °C
  Average Net Intensity: 3100-4590
  Polarization: 210.41
[4]; Week 2, −20 °C
  Average Net Intensity: 3180-4635
  Polarization: 208.85
[4]; Week 4, 2-8 °C
  Average Net Intensity: 3395-4988
  Polarization: 210.35

## CC(C(=O)O)c1cccc(Oc2ccccc2)c1 (stereo not drawn) [Fenoprofen]
[1]; Conc. Added 200 (ng/mL)
  % CR: 0.02%
  Conc. Found: 40 ng/mL
[3]; 215 μg/mL added
  amount of the test compound found: 180 ng/mL
  factor: 0.00084
  percent cross reactivity: 0.084%
[3]; 430 μg/mL added
  amount of the test compound found: 290 ng/mL
  factor: 0.00067
  percent cross reactivity: 0.067%
[2]; Conc. Added 200 (ng/mL)
  % CR: 0.015%
  Conc. Found: 30 ng/mL

## CCC1(c2ccccc2)CCC(=O)NC1=O (stereo not drawn) [Glutethimide]
[1]; Conc. Added 10 (ng/mL)
  % CR: 4.70%
  Conc. Found: 470 ng/mL
[3]; 1 μg/mL added
  amount of the test compound found: ND (None detected: Concentration less than the sensitivity of the assay (60 ng/mL))
[3]; 10 μg/mL added
  amount of the test compound found: 180 ng/mL
  factor: 0.018
  percent cross reactivity: 1.80%
[2]; 1 μg/mL added
  amount of the test compound found: 89 ng/mL
  factor: 0.089
  percent cross reactivity: 8.90%
[2]; 10 μg/mL added
  amount of the test compound found: 480 ng/mL
  factor: 0.048
  percent cross reactivity: 4.80%
[2]; Conc. Added 10 (ng/mL)
  % CR: 4.70%
  Conc. Found: 470 ng/mL

## CC(C)Cc1ccc(C(C)C(=O)O)cc1 (stereo not drawn) [Ibuprofen]
[1]; Conc. Added 1000 (ng/mL)
  % CR: 0.005%
  Conc. Found: 50 ng/mL
[3]; 1 μg/mL added
  amount of the test compound found: ND (None detected: Concentration less than the sensitivity of the assay (60 ng/mL))
[3]; 10 μg/mL added
  amount of the test compound found: ND (None detected: Concentration less than the sensitivity of the assay (60 ng/mL))
[3]; 100 μg/mL added
  amount of the test compound found: 70 ng/mL
  factor: 0.0007
  percent cross reactivity: 0.07%
[2]; Conc. Added 1000 (ng/mL)
  % CR: 0.002%
  Conc. Found: 20 ng/mL

## CC(C(=O)O)c1ccc(CC(C)(C)O)cc1 (stereo not drawn) [OH-Ibuprofen]
[3]; 1 μg/mL added
  amount of the test compound found: ND (None detected: Concentration less than the sensitivity of the assay (60 ng/mL))
[3]; 10 μg/mL added
  amount of the test compound found: ND (None detected: Concentration less than the sensitivity of the assay (60 ng/mL))
[3]; 100 μg/mL added
  amount of the test compound found: ND (None detected: Concentration less than the sensitivity of the assay (60 ng/mL))
[3]; 1000 μg/mL added
  amount of the test compound found: 60 ng/mL
  factor: 0.00006
  percent cross reactivity: 0.006%

## CCCC(C)C1(CC)C(=O)NC(=O)NC1=O (stereo not drawn) [Pentobarbital]
[1]; Conc. Added 1200 ng/mL
  % CR: 64%
  Conc. Found: 770 ng/mL
[3]; 200 ng/mL added
  factor which overestimates or underestimates the compound assayed for: 1.05
  percent cross reactivity: 105%
[3]
  amount of the test compound found in the resulting human urine: 210 ng/mL
[2]; 200 ng/mL added
  factor which overestimates or underestimates the compound assayed for: 0.65
  percent cross reactivity: 65%
[2]
  amount of the test compound found in the resulting human urine: 129 ng/mL
[2]; Conc. Added 1200 ng/mL
  % CR: 62%
  Conc. Found: 740 ng/mL

## C=CCC1(C(C)CCC)C(=O)NC(=O)NC1=O (stereo not drawn) [Secobarbital]
[3]; 200 ng/mL added
  factor which overestimates or underestimates the compound assayed for: 1.00
  percent cross reactivity: 100%
[3]
  amount of the test compound found in the resulting human urine: 200 ng/mL
[3]; [5]
  factor which overestimates or underestimates the compound assayed for: 1.0
  percent cross reactivity: 100%
[2]; 200 ng/mL added
  factor which overestimates or underestimates the compound assayed for: 1.00
  percent cross reactivity: 100%
[2]
  amount of the test compound found in the resulting human urine: 200 ng/mL

## Butobarbital
[2]; Conc. Added 1200 ng/mL
  % CR: 48%
  Conc. Found: 580 ng/mL
